The target in assay [1] is BMP-2-inducible protein kinase (Homo sapiens) (UniProt Q9NSY1). Put plainly: BMP2K SGC Tm panel (DSF). The note with it: for ΔTm: Compound concentration 10.0 uM.
Assay [2] addresses T1, Serine/threonine-protein kinase PLK4 (Homo sapiens) (UniProt O00444).
T1 sequence (whole entry): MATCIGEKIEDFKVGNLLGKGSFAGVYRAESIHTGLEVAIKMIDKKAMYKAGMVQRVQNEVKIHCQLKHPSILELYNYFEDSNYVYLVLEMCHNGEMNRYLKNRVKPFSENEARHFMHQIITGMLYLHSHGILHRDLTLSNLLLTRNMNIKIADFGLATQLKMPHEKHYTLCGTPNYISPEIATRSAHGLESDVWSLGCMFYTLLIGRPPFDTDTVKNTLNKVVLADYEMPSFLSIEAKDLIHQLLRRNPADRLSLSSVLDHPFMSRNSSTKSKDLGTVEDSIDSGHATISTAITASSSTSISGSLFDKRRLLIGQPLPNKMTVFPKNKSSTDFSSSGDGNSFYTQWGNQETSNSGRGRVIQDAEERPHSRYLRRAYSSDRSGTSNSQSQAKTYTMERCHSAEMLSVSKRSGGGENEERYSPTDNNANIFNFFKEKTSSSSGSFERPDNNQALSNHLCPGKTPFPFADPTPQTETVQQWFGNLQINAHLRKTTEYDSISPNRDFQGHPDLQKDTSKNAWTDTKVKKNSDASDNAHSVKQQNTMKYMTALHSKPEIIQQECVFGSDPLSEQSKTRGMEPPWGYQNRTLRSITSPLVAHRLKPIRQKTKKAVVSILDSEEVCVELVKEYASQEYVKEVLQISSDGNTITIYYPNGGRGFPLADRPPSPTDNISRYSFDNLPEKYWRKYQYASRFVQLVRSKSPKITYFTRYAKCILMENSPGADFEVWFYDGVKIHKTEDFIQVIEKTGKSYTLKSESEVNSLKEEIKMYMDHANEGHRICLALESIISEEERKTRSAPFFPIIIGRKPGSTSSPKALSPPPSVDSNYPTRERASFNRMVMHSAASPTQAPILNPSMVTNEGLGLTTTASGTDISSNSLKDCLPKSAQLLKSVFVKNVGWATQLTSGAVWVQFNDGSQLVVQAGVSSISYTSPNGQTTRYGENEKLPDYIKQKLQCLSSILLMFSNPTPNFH
In words: PLK4 SGC Tm panel (DSF). The following applies: for ΔTm: Compound concentration 10.0 uM.

For assay [3], the target named is T2, Tyrosine-protein kinase Mer (Homo sapiens) (UniProt Q12866).
T2 sequence (whole entry): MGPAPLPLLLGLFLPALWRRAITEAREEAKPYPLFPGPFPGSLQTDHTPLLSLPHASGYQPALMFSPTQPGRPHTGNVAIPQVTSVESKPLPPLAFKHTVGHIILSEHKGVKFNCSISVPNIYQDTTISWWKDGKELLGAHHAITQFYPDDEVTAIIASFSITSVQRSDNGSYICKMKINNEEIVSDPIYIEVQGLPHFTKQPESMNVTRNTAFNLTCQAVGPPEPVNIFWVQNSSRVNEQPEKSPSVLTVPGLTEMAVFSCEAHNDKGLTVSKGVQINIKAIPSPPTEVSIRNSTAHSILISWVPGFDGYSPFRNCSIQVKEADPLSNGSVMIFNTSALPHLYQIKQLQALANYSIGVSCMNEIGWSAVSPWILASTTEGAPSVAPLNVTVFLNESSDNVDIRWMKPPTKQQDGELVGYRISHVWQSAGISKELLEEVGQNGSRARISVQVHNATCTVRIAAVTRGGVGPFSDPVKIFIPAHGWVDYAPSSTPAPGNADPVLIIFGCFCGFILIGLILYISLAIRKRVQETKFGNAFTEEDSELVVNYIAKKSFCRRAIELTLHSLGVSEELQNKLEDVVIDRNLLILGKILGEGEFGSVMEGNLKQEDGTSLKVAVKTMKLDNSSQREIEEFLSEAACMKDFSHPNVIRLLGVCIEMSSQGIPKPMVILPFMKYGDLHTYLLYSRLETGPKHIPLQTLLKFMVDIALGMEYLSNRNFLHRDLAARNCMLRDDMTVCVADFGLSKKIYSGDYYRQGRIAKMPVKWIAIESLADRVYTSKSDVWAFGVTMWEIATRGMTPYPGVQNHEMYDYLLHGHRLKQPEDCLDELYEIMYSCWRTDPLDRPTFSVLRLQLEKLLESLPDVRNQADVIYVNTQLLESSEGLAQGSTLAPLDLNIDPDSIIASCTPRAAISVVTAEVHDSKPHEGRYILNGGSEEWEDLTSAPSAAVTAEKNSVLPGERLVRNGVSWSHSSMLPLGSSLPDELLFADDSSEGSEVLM
In words: MERTK SGC Tm panel (DSF). The note with it: for ΔTm: Compound concentration 10.0 uM.

Assay [4] concerns the target 5-hydroxytryptamine receptor 2A (Homo sapiens) (UniProt P28223). The note with it: Compound concentration 10.0 uM.
Assay [5] concerns the target Muscarinic acetylcholine receptor M3 (Homo sapiens) (UniProt P20309). The following applies: Compound concentration 10.0 uM.
Assay [6] has as its target T3, Serine/threonine-protein kinase 17B (Homo sapiens) (UniProt O94768).
T3 sequence (whole entry): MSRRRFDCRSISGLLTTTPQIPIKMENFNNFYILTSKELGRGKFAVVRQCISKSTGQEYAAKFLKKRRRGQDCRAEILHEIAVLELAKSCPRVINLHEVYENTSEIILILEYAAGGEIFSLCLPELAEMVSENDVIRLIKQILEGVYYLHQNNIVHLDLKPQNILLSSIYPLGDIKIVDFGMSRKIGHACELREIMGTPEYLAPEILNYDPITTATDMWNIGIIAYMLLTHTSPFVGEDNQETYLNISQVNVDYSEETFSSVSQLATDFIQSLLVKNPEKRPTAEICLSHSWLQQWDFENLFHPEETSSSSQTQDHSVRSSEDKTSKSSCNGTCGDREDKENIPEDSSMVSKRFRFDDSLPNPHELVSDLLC
Put plainly: STK17B SGC Tm panel (DSF). The note with it: for ΔTm: Compound concentration 10.0 uM.

For assay [7], the target named is Mitogen-activated protein kinase 8 (Homo sapiens) (UniProt P45983). Put plainly: MAPK8 SGC Tm panel (DSF). The note with it: for ΔTm: Compound concentration 10.0 uM.
The target of assay [8] is 5-hydroxytryptamine receptor 5A (Homo sapiens) (UniProt P47898). The note with it: Compound concentration 10.0 uM.
5-hydroxytryptamine receptor 5A (Homo sapiens), sequence (P47898 whole entry): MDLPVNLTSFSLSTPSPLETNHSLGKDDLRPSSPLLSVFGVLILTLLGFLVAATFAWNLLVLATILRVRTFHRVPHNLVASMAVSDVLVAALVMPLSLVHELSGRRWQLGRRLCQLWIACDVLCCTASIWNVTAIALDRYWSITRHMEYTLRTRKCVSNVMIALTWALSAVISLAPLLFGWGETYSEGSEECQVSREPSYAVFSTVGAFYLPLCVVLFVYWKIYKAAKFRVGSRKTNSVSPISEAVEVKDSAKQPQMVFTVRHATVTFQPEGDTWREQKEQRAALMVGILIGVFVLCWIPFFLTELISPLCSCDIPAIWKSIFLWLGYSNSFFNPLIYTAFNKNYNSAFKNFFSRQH

5-hydroxytryptamine receptor 2A (Homo sapiens), sequence (P28223 whole entry): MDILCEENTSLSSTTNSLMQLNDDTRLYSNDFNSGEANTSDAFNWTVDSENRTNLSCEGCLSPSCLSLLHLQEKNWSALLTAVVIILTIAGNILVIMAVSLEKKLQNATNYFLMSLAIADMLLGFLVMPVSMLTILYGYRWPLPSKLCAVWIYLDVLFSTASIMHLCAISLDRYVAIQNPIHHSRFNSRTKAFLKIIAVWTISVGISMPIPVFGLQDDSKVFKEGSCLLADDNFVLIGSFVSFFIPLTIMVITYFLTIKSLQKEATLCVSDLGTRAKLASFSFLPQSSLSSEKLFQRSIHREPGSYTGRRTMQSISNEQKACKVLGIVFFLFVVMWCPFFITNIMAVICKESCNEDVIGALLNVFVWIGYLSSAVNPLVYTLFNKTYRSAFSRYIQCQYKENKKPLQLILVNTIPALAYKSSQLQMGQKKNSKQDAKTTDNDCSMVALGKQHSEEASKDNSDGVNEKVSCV
Mitogen-activated protein kinase 8 (Homo sapiens), sequence (P45983 whole entry): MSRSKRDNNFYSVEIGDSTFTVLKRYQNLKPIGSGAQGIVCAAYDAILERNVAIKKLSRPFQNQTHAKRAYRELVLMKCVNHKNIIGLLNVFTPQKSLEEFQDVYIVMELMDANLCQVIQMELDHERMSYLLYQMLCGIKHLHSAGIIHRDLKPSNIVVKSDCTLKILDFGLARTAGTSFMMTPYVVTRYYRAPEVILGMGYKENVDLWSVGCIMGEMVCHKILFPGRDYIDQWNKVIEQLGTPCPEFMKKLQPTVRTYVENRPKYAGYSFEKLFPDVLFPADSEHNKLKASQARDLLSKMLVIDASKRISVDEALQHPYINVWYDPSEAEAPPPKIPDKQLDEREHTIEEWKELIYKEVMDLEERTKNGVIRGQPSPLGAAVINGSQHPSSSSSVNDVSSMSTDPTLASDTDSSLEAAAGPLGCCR
BMP-2-inducible protein kinase (Homo sapiens), sequence (Q9NSY1 whole entry, looked up): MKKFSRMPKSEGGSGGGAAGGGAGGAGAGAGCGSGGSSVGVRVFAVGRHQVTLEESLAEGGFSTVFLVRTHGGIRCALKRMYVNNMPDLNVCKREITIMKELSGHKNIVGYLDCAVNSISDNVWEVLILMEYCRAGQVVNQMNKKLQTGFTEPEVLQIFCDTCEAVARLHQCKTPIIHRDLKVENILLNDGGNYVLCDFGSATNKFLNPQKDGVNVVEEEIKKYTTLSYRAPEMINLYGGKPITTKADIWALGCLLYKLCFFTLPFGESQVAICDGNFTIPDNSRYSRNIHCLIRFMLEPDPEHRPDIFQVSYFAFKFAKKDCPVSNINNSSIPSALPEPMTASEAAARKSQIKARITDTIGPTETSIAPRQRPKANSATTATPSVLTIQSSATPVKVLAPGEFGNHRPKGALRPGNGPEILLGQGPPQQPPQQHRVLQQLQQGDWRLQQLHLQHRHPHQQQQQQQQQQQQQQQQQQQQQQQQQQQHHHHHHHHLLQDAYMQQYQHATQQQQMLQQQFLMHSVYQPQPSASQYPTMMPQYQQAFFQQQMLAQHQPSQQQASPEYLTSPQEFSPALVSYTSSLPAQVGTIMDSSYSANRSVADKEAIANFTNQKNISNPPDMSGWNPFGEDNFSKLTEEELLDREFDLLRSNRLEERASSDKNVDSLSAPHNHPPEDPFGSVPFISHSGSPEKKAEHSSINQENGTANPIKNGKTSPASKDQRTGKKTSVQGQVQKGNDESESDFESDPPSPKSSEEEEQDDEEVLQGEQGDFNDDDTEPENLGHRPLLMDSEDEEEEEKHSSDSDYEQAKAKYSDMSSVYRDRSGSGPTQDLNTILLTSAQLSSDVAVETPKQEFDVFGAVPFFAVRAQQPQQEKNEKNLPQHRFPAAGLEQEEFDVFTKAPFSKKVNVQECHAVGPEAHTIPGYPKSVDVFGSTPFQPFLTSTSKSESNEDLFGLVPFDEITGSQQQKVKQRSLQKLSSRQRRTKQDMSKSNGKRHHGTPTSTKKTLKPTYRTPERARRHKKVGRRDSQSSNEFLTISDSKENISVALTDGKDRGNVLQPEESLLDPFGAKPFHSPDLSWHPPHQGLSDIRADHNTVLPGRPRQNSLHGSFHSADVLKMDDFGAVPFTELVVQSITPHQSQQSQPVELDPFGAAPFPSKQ
Muscarinic acetylcholine receptor M3 (Homo sapiens), sequence (P20309 whole entry, looked up): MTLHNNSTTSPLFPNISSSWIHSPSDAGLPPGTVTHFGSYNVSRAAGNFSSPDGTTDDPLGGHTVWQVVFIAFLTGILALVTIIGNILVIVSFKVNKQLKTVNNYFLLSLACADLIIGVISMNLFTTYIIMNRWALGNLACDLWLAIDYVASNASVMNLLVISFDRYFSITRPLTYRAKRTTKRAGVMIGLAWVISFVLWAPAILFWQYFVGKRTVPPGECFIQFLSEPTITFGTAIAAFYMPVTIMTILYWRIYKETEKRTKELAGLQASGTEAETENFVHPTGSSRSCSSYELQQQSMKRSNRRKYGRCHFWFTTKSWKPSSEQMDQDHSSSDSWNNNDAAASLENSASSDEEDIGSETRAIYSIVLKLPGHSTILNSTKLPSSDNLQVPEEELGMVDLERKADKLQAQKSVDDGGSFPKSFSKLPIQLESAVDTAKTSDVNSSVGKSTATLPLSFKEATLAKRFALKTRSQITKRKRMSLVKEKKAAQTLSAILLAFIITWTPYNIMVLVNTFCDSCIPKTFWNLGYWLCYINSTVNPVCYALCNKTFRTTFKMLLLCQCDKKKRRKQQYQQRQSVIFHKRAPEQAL

One may read the inhibition as the drop in the measured response relative to a control, in per cent. With `CCC[C@H]1CNCc2c1[nH]c(=O)c(C#N)c2N1CCC2(CC1)CC2`, the delta Tm Staurosporine positive control came to 18.7 in assay [1]; 19.7 in assay [2]; 6.4 in assay [3]; 10.6 in assay [6]; 7.45 in assay [7]. For the same compound, the ΔTm in assay [1] was -0.103; in assay [2], -0.34; in assay [3], -0.991; in assay [6], -0.858; in assay [7], -0.298. Moreover, the inhibition in assay [4] was -6.26%; in assay [5] it was -1%; in assay [8], 5.53%.

In the case of `CCC[C@@H]1CNCc2c1[nH]c(=O)c(C#N)c2N1CCC2(CC1)CC2`, the delta Tm Staurosporine positive control in assay [1] is 18.7; in assay [2], 19.7; in assay [3], 6.4; in assay [6] it was 10.6; in assay [7] it was 7.45. For the same compound, the ΔTm in assay [1] is -0.192; in assay [2], -0.315; in assay [3], -0.932; in assay [6] it was -0.79; in assay [7], -0.293. The inhibition in assay [4] was -4.86%; in assay [5], 3.32%; in assay [8] it was 3.9%.

The record behind these values is ChEMBL document CHEMBL5303765, “Data for DCP probe BAY-7081” (2023).
